These results are taken from ChEMBL document CHEMBL5096222, “Discovery of a Trifluoromethoxy Cyclopentanone Benzothiazole Receptor-Interacting Protein Kinase 1 Inhibitor as the Treatment for Alzheimer's Disease” (J Med Chem, 2022).

The target in data set [1] is Receptor-interacting serine/threonine-protein kinase 3 (Homo sapiens, UniProt Q9Y572). Kind of data set: Binding affinity to recombinant human wild type partial length RIPK3 (M1 to Q307 residues) expressed in bacterial expression system by KINOMEscan TM assay.
A short description of data set [2]: Cytotoxicity against human HT-29 cells assessed as reduction in cell viability by celltiter-glo luminescent cell viability assay. Type of data set: toxicity, cell-based. Background: In ATP-based viability assays light output follows the ATP content of the culture.
Another data set concerns HT-29. Kind of data set: Anti-necroptotic activity in TSZ induced human HT-29 cells assessed as increase in cell viability pretreated with compound followed by TSZ stimulation and measured after 16 hrs by celltiter-glo luminescent cell viability assay. Type of data set: functional, cell-based.
For data set [3], the target named is T1, Receptor-interacting serine/threonine-protein kinase 1 (Homo sapiens, UniProt Q13546).
T1 sequence (Q13546 whole entry): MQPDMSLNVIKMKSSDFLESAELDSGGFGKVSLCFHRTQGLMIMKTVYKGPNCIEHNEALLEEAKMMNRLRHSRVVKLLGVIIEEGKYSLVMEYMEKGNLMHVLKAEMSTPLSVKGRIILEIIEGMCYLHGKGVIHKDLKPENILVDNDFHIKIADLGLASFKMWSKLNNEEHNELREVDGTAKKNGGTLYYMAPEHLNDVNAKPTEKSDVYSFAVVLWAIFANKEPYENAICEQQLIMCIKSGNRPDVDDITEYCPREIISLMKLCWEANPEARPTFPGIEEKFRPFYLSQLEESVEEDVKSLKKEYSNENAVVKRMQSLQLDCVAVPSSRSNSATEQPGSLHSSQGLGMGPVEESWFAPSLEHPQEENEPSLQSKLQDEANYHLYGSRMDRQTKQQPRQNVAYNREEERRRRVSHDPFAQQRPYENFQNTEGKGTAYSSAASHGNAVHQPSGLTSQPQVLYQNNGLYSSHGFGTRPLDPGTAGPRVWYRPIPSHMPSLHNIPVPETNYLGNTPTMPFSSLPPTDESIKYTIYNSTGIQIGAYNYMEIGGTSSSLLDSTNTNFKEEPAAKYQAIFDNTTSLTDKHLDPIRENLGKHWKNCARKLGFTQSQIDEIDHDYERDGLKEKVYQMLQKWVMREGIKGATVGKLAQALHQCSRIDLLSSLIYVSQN
Kind of data set: Binding affinity to recombinant human wild type partial length RIPK1 (M1 to K305 residues) expressed in bacterial expression system by KINOMEscan TM assay.

Chain of Receptor-interacting serine/threonine-protein kinase 3 (Q9Y572 whole entry, the tested form may be a part): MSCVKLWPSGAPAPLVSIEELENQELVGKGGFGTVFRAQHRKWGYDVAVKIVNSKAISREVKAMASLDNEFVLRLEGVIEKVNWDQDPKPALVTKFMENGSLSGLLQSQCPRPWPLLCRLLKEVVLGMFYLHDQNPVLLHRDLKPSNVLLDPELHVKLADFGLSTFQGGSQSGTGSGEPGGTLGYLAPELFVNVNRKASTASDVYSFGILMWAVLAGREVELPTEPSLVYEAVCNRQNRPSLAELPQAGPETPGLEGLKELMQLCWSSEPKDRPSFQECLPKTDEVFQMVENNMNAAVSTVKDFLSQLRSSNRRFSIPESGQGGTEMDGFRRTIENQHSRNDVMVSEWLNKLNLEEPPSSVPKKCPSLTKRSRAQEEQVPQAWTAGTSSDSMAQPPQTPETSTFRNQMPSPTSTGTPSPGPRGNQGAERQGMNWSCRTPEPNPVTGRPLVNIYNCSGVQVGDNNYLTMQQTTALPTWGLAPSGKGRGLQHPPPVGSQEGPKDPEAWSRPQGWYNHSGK

As to `O=C(Cc1cccc(OC(F)(F)F)c1)Nc1cc(Oc2cc3nc(NC(=O)C4CCOC4)sc3cc2F)ccc1F` (centres undefined), the dissociation constant Kd (in general, the equilibrium constant for the complex coming apart) in data set [1] is over 5 µM; in data set [3], 12 nM. Moreover, the CC50 (usually the concentration giving 50% cytotoxicity) in data set [2] was over 50 µM. For the same molecule, the EC50 (usually the midpoint of the concentration-response curve) in the data set on HT-29 is 13 nM.
Turning to `CN1C(=O)[C@@H](NC(=O)c2nnc(Cc3ccccc3)[nH]2)COc2ccccc21` [GSK2982772], in data set [2], the 50% cytotoxic concentration (CC50) is over 50 µM.
For `O=C(Cc1cccc(C(F)(F)F)c1)Nc1cc(Oc2cc3nc(NC(=O)C4CC4)sc3cc2F)ccc1F`, the dissociation constant Kd in data set [1] worked out at 0.077 µM; in data set [3], 97 nM. For the same molecule, the half-maximal cytotoxic concentration (CC50) in data set [2] came out at 36.5 µM. The half-maximal effective concentration (EC50) with HT-29 stood at 170 nM.
As to `O=C(Cc1cccc(OC(F)(F)F)c1)Nc1cc(Oc2cc3nc(NC(=O)C4CC4F)sc3cc2F)ccc1F` (centres undefined), the figures for the Kd in data set [1] and in data set [3] were over 5 µM and 18 nM, respectively. The CC50 in data set [2] is over 50 µM. Further, the EC50 with HT-29 stood at 10 nM.
As for `O=C1CCC(C(=O)Nc2nc3cc(Oc4ccc(F)c(NC(=O)Cc5cccc(OC(F)(F)F)c5)c4)c(F)cc3s2)C1` (centres undefined), the Kd in data set [1] was over 5 µM; in data set [3], 9.6 nM. For the same molecule, the half-maximal cytotoxic concentration (CC50) in data set [2] is over 50 µM. In addition, the EC50 with HT-29 came out at 8 nM.
Take `CC1(C)CC1C(=O)Nc1nc2cc(Oc3ccc(F)c(NC(=O)Cc4cccc(OC(F)(F)F)c4)c3)c(F)cc2s1` (centres undefined): the dissociation constant Kd in data set [1] is over 5 µM; in data set [3] it was 25 nM. Also, the CC50 in data set [2] is over 50 µM. The EC50 in the data set with HT-29 came to 12 nM.
With `O=C1CCC(C(=O)Nc2nc3cc(Oc4ccc(F)c(NC(=O)Cc5cccc(OC(F)(F)F)c5)c4)c(F)cc3s2)CC1`, the Kd is over 5 µM in data set [1] and 4.5 nM in data set [3]. The half-maximal cytotoxic concentration (CC50) in data set [2] was over 50 µM. Besides, the EC50 in the data set with HT-29 stood at 10 nM.
For `O=C(Cc1cccc(OC(F)(F)F)c1)Nc1cc(Oc2cc3nc(NC(=O)C4CC4)sc3cc2F)ccc1F`, in that order: 0.12 µM, 49 nM, over 50 µM and 82 nM.
